According to paper PMC7170481, “Inhibition of Ammonia Monooxygenase from Ammonia-Oxidizing Archaea by Linear and Aromatic Alkynes” (Applied and Environmental Microbiology, 2020):

Experiments:
Assay in all cases: inhibition of NH3-dependent nitrite production by intact cells
Format in all cases: cell-based
[1] = target: T1, AMO from "Ca. Nitrosocosmicus franklandus" C13 (Candidatus Nitrosocosmicus franklandianus, UniProt A0A484I8C2+A0A484I9U7+A0A484IBG0)
T1 construct: gene amoA; native membrane enzyme complex in intact cells (not purified); copper-dependent multimeric
T1 sequence (A0A484I9U7 1-216): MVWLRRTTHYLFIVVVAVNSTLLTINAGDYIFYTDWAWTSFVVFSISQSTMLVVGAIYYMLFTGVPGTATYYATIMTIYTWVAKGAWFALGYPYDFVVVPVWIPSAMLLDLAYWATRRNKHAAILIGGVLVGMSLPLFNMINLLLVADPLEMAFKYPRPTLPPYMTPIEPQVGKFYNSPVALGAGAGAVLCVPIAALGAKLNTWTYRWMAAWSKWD
T1 sequence (A0A484I8C2 1-192): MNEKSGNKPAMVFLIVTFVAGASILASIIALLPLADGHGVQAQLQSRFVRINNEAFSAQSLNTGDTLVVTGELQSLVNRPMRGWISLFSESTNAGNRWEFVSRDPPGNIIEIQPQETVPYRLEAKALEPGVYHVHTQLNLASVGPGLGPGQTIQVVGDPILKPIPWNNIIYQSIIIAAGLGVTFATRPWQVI
T1 sequence (A0A484IBG0 1-187): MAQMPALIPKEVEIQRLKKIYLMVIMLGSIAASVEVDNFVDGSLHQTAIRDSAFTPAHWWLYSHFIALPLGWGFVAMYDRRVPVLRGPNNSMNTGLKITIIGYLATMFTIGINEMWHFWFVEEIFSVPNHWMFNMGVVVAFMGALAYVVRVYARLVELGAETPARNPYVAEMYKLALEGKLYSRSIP
Text: inhibition of NH3-dependent nitrite production by intact cells on AMO from "Ca. Nitrosocosmicus franklandus" C13 | partial inhibition of NH3 oxidation by “Ca.

[2] = system: T2, pMMO from Methylococcus capsulatus (Bath); settings: 20 mM NH4+, 20 mM formate as reductant, 10 mM PIPES pH 7, 37°C, 30 min preincubation
T2 construct: gene pmoB; sMMO excluded by naphthalene assay

[3] = target: T3, AMO from Nitrosomonas europaea (Nitrosomonas europaea, UniProt Q04507+Q04508+Q82T63)
T3 construct: gene amoA1; native membrane enzyme complex in intact cells (not purified); genome carries duplicate amo operons
T3 sequence (Q04507 2-276): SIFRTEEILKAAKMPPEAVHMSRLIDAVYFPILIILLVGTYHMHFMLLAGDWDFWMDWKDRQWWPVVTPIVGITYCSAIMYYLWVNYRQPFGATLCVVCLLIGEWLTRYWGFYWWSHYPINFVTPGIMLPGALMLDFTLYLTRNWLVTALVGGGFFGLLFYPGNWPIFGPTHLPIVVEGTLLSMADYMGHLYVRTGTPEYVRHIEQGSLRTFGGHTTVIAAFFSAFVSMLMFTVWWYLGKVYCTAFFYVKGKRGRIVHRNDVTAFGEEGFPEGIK
T3 sequence (Q04508 26-420): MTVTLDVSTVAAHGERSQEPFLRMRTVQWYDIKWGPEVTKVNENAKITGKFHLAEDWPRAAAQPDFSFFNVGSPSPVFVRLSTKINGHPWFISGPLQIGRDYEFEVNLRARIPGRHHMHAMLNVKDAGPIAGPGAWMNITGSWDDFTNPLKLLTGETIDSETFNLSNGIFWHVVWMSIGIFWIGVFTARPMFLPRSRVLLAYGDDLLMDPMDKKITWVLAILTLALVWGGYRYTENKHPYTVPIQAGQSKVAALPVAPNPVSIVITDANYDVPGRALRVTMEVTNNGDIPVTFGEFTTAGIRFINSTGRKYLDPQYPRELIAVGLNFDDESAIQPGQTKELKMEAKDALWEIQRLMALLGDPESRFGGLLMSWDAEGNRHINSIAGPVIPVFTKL
T3 sequence (Q82T63 1-271): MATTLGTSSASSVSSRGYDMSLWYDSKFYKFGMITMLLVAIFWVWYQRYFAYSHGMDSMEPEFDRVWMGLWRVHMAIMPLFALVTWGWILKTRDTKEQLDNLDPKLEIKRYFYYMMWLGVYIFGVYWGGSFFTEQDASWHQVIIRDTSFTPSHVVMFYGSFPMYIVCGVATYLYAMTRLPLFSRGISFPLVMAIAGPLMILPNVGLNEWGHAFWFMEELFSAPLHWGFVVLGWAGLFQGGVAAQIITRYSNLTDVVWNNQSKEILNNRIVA

[4] = target: T4, AMO from "Ca. Nitrosotalea sinensis" Nd2 (Nitrosotalea sinensis, UniProt A0A2H1EFS5+A0A2H1EG39+A0A2H1EG64)
T4 construct: gene amoA; native membrane enzyme complex in intact cells (not purified)
Text: inhibition of NH3-dependent nitrite production by intact cells on AMO from "Ca.

[5] = target: T3, AMO from Nitrosomonas europaea; settings: 1 mM NH4+, 50 mM sodium phosphate pH 7.7, 2 mM MgCl2, 30°C, 30 min preincubation

T4 sequence (A0A2H1EG64 24-239 limits assumed): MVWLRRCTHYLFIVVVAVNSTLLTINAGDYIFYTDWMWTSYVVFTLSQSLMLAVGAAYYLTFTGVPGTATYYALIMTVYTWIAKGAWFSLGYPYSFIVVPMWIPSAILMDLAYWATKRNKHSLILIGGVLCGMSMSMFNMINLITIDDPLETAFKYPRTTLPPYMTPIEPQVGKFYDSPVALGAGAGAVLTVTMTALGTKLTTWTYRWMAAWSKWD
T4 sequence (A0A2H1EFS5 1-188): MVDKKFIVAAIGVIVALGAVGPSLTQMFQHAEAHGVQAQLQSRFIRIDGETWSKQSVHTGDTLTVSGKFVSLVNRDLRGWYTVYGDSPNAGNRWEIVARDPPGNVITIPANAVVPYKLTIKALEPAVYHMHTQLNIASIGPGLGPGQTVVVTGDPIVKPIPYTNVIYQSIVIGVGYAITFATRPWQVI
T4 sequence (A0A2H1EG39 1-187): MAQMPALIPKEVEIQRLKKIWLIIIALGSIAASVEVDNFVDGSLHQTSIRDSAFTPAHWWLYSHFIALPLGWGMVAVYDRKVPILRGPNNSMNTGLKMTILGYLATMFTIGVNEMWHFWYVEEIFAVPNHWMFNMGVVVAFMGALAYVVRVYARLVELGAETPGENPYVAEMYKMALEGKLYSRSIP

SMILES | % inhibition at 10 μM [2] | % inhibition at 10 μM [5] | further results
C#CCCC [C5, 1-pentyne] | > 20% |  | inhibition at 10 µM [1]: 14 ± 1%; inhibition at 10 µM [3]: 98 ± 1%; inhibition at 10 µM [4]: 70 ± 1%
C#CCCCC [C6, 1-hexyne] | ~ 10% | AMO activity was completely inhibited by C6 to C8 1-alkynes | 
C#CCCCCC [C7, 1-heptyne] | ~ 10% | AMO activity was completely inhibited by C6 to C8 1-alkynes | 
C#CCCCCCC [C8, 1-octyne] |  | AMO activity was completely inhibited by C6 to C8 1-alkynes | 
C#Cc1ccccc1 [PA, phenylacetylene] |  |  | inhibition at 5 µM ([1]; read-out: % inhibition at 5 μM): 55.4 ± 1.4%; inhibition at 0.5 µM ([3]; read-out: % inhibition at 0.5 μM): 52.5 ± 1.7%
